Experimental data from patent publication US11919901B2 (Syndax Pharmaceuticals, Inc., priority 2021, dated 2024).
pIC50: −log10 of the molar value.

Each molecule was assayed on MV4-11 cells (assay: Cell proliferation assay MV4;11 (CellTiter-Glo, 72 hours)). Conditions: Homo sapiens; MV4;11 leukemia cell line, 72 hours; read-out: MV4; 11 IC50.
Assay type: cell-based
Procedure: Compounds were evaluated for its capacity to inhibit the proliferation of the MLLr leukemia cell line MV4-11 that harbors an MLL1-AF4 fusion protein. MV4-11 cells were cultured for 72 hours with limiting dilutions of compounds and viability was measured using CellTiter-Glo.
Compounds were dissolved to obtain as 10 mM solution in DMSO. The stock was diluted 1:5 to the top concentration of 2 mM in 100% DMSO. For IC50 determination, serial 1:3.16 dilutions were prepared in 100% DMSO by diluting 20 μL into 43.5 μL of DMSO for 8 concentrations. Each prepared DMSO solution were further diluted 1:500 in the cell culture media to obtain the 2× dosing solutions. The final concentrations of tested compounds in the cell culture media ranged from 0.632 nM to 2000 nM.
MV4-11 cells were cultured in IMDM with 10% FBS and 1× Penicillin-Streptomycin at 5% CO2 and 37° C. A cell suspension was prepared containing 15,000 cells/ml in the culture medium and 100 μL of this suspension was added per well to a 96-well cell culture plate. Then, 100 μL of 2× dosing media containing test compounds were added bringing the total volume to 200 μL. These cells were cultured for 72 hours at 37° C. and 5% CO2 in a humidified incubator.
After 72 hours, the cultured cells were mixed and 100p L was transferred to a 96-well black plate. Cell Titer Glo (100 μl) was then added to this plate. The plate was mixed with shaking for 15 mins at RT, the luminescence was then measured using Tecan Spark 20M spectrophotometer. Cell Viability (%) was determined by RLU of test/RLU average vehicle control*100 and % max inhibition was determined by 100−(% cell viability remaining at the top concentration of compound).

| Structure (SMILES) | pIC50 |
| --- | --- |
| CC(C)N(C(=O)c1cc(F)ccc1Oc1cncnc1N1CC2(CCN(C[C@@H]3CC[C@@H](NS(=O)(=O)C4COC4)CO3)CC2)C1)C1CC1 [Example 22, N-Cyclopropyl-5-fluoro-N-isopropyl-2-((4-(7-(((2S,5R)-5-(oxetane-3-sulfonamido)tetrahydro-2H-pyran-2-yl)methyl)-2,7-diazaspiro[3.5]nonan-2-yl)pyrimidin-5-yl)oxy)benzamide] | 6.00 to 7.00 |
| C[C@@H]1COC[C@H](C)N1C(=O)c1cc(F)ccc1Oc1cncnc1N1CC2(CCN(C[C@@H]3CC[C@@H](NS(C)(=O)=O)CO3)CC2)C1 [Example 23, N-((3R,6S)-6-((2-(5-(2-((3S,5R)-3,5-Dimethylmorpholine-4-carbonyl)-4-fluorophenoxy)pyrimidin-4-yl)-2,7-diazaspiro[3.5]nonan-7-yl)methyl)tetrahydro-2H-pyran-3-yl)methanesulfonamide] | 6.00 to 7.00 |
| CCS(=O)(=O)N[C@@H]1CC[C@@H](CN2CCC3(CC2)CN(c2ncncc2Oc2ccc(F)cc2C(=O)N2[C@H](C)COC[C@@H]2C)C3)OC1 [Example 24, N-((3R,6S)-6-((2-(5-(2-((3S,5R)-3,5-dimethylmorpholine-4-carbonyl)-4-fluorophenoxy)pyrimidin-4-yl)-2,7-diazaspiro[3.5]nonan-7-yl)methyl)tetrahydro-2H-pyran-3-yl)ethanesulfonamide] | > 7.00 |
| CC(C)S(=O)(=O)N[C@@H]1CC[C@@H](CN2CCC3(CC2)CN(c2ncncc2Oc2ccc(F)cc2C(=O)N2[C@H](C)COC[C@@H]2C)C3)OC1 [Example 25, N-((3R,6S)-6-((2-(5-(2-((3S,5R)-3,5-Dimethylmorpholine-4-carbonyl)-4-fluorophenoxy)pyrimidin-4-yl)-2,7-diazaspiro[3.5]nonan-7-yl)methyl)tetrahydro-2H-pyran-3-yl)propane-2-sulfonamide] | > 7.00 |
| C[C@@H]1COC[C@H](C)N1C(=O)c1cc(F)ccc1Oc1cncnc1N1CC2(CCN(C[C@@H]3CC[C@@H](NS(=O)(=O)C4CC4)CO3)CC2)C1 [Example 26, N-((3R,6S)-6-((2-(5-(2-((3S,5R)-3,5-Dimethylmorpholine-4-carbonyl)-4-fluorophenoxy)pyrimidin-4-yl)-2,7-diazaspiro[3.5]nonan-7-yl)methyl)tetrahydro-2H-pyran-3-yl)cyclopropanesulfonamide] | > 7.00 |
| C[C@@H]1COC[C@H](C)N1C(=O)c1cc(F)ccc1Oc1cncnc1N1CC2(CCN(C[C@@H]3CC[C@@H](NS(=O)(=O)C4COC4)CO3)CC2)C1 [Example 27, N-((3R,6S)-6-((2-(5-(2-((3S,5R)-3,5-Dimethylmorpholine-4-carbonyl)-4-fluorophenoxy)pyrimidin-4-yl)-2,7-diazaspiro[3.5]nonan-7-yl)methyl)tetrahydro-2H-pyran-3-yl)oxetane-3-sulfonamide] | 6.00 to 7.00 |
| C[C@@H]1COC[C@@H](C)N1C(=O)c1cc(F)ccc1Oc1cncnc1N1CC2(CCN(C[C@@H]3CC[C@@H](NS(C)(=O)=O)CO3)CC2)C1 [Example 28, N-((3R,6S)-6-((2-(5-(2-((3R,5R)-3,5-Dimethylmorpholine-4-carbonyl)-4-fluorophenoxy)pyrimidin-4-yl)-2,7-diazaspiro[3.5]nonan-7-yl)methyl)tetrahydro-2H-pyran-3-yl)methanesulfonamide] | 6.00 to 7.00 |
| CCS(=O)(=O)N[C@@H]1CC[C@@H](CN2CCC3(CC2)CN(c2ncncc2Oc2ccc(F)cc2C(=O)N2[C@H](C)COC[C@H]2C)C3)OC1 [Example 29, N-((3R,6S)-6-((2-(5-(2-((3R,5R)-3,5-Dimethylmorpholine-4-carbonyl)-4-fluorophenoxy)pyrimidin-4-yl)-2,7-diazaspiro[3.5]nonan-7-yl)methyl)tetrahydro-2H-pyran-3-yl)ethanesulfonamide] | > 7.00 |
| CC(C)S(=O)(=O)N[C@@H]1CC[C@@H](CN2CCC3(CC2)CN(c2ncncc2Oc2ccc(F)cc2C(=O)N2[C@H](C)COC[C@H]2C)C3)OC1 [Example 30, N-((3R,6S)-6-((2-(5-(2-((3R,5R)-3,5-Dimethylmorpholine-4-carbonyl)-4-fluorophenoxy)pyrimidin-4-yl)-2,7-diazaspiro[3.5]nonan-7-yl)methyl)tetrahydro-2H-pyran-3-yl)propane-2-sulfonamide] | > 7.00 |
| C[C@@H]1COC[C@@H](C)N1C(=O)c1cc(F)ccc1Oc1cncnc1N1CC2(CCN(C[C@@H]3CC[C@@H](NS(=O)(=O)C4CC4)CO3)CC2)C1 [Example 31, N-((3R,6S)-6-((2-(5-(2-((3R,5R)-3,5-dimethylmorpholine-4-carbonyl)-4-fluorophenoxy)pyrimidin-4-yl)-2,7-diazaspiro[3.5]nonan-7-yl)methyl)tetrahydro-2H-pyran-3-yl)cyclopropanesulfonamide] | > 7.00 |
| C[C@@H]1COC[C@@H](C)N1C(=O)c1cc(F)ccc1Oc1cncnc1N1CC2(CCN(C[C@@H]3CC[C@@H](NS(=O)(=O)C4COC4)CO3)CC2)C1 [Example 32, N-((3R,6S)-6-((2-(5-(2-((3R,5R)-3,5-Dimethylmorpholine-4-carbonyl)-4-fluorophenoxy)pyrimidin-4-yl)-2,7-diazaspiro[3.5]nonan-7-yl)methyl)tetrahydro-2H-pyran-3-yl)oxetane-3-sulfonamide] | 6.00 to 7.00 |
| CCS(=O)(=O)N[C@@H]1CC[C@@H](CN2CCC3(CC2)CN(c2ncncc2Oc2ccc(F)cc2C(=O)N(C(C)C)[C@H]2CCOC2)C3)OC1 [Example 33, 2-((4-(7-(((2S,5R)-5-(Ethylsulfonamido)tetrahydro-2H-pyran-2-yl)methyl)-2,7-diazaspiro[3.5]nonan-2-yl)pyrimidin-5-yl)oxy)-5-fluoro-N-isopropyl-N-((S)-tetrahydrofuran-3-yl)benzamide] | > 7.00 |
| CCS(=O)(=O)N[C@@H]1CC[C@@H](CN2CCC3(CC2)CN(c2ncncc2Oc2ccc(F)cc2C(=O)N(CC(F)F)C(C)C)C3)OC1 [Example 34, N-(2,2-Difluoroethyl)-2-((4-(7-(((2S,5R)-5-(ethylsulfonamido)tetrahydro-2H-pyran-2-yl)methyl)-2,7-diazaspiro[3.5]nonan-2-yl)pyrimidin-5-yl)oxy)-5-fluoro-N-isopropylbenzamide] | > 7.00 |
| CCS(=O)(=O)N[C@@H]1CC[C@@H](CN2CCC3(CC2)CN(c2ncncc2Oc2ccc(F)cc2C(=O)N(CCOC)C(C)C)C3)OC1 [Example 35, 2-((4-(7-(((2S,5R)-5-(Ethylsulfonamido)tetrahydro-2H-pyran-2-yl)methyl)-2,7-diazaspiro[3.5]nonan-2-yl)pyrimidin-5-yl)oxy)-5-fluoro-N-isopropyl-N-(2-methoxyethyl)benzamide] | > 7.00 |
| CCS(=O)(=O)N[C@@H]1CC[C@@H](CN2CCC3(CC2)CN(c2ncncc2Oc2ccc(F)cc2C(=O)N2[C@H](C)CCC[C@@H]2C)C3)OC1 [Example 36, N-((3R,6S)-6-((2-(5-(2-((2S,6R)-2,6-Dimethylpiperidine-1-carbonyl)-4-fluorophenoxy)pyrimidin-4-yl)-2,7-diazaspiro[3.5]nonan-7-yl)methyl)tetrahydro-2H-pyran-3-yl)ethanesulfonamide] | > 7.00 |
| CCN(C(=O)c1cc(F)ccc1Oc1cncnc1N1CC2(CCN(C[C@@H]3CC[C@@H](NC(=O)NCC(F)(F)F)CO3)CC2)C1)C(C)C [Example 37, N-Ethyl-5-fluoro-N-isopropyl-2-((4-(7-(((2S,5R)-5-(3-(2,2,2-trifluoroethyl)ureido)tetrahydro-2H-pyran-2-yl)methyl)-2,7-diazaspiro[3.5]nonan-2-yl)pyrimidin-5-yl)oxy)benzamide] | > 7.00 |
| CCCNC(=O)N[C@@H]1CC[C@@H](CN2CCC3(CC2)CN(c2ncncc2Oc2ccc(F)cc2C(=O)N(CC)C(C)C)C3)OC1 [Example 38, N-Ethyl-5-fluoro-N-isopropyl-2-((4-(7-(((2S,5R)-5-(3-propylureido)tetrahydro-2H-pyran-2-yl)methyl)-2,7-diazaspiro[3.5]nonan-2-yl)pyrimidin-5-yl)oxy)benzamide] | 6.00 to 7.00 |
| CCNC(=O)N[C@@H]1CC[C@@H](CN2CCC3(CC2)CN(c2ncncc2Oc2ccc(F)cc2C(=O)N(CC)C(C)C)C3)OC1 [Example 39, N-Ethyl-2-((4-(7-(((2S,5R)-5-(3-ethylureido)tetrahydro-2H-pyran-2-yl)methyl)-2,7-diazaspiro[3.5]nonan-2-yl)pyrimidin-5-yl)oxy)-5-fluoro-N-isopropylbenzamide] | > 7.00 |
| C[C@H]1COCCN1C(=O)c1cc(F)ccc1Oc1cncnc1N1CC2(CCN(C[C@@H]3CC[C@@H](NS(=O)(=O)C4CC4)CO3)CC2)C1 [Example 40, N-((3R,6S)-6-((2-(5-(4-Fluoro-2-((S)-3-methylmorpholine-4-carbonyl)phenoxy)pyrimidin-4-yl)-2,7-diazaspiro[3.5]nonan-7-yl)methyl)tetrahydro-2H-pyran-3-yl)cyclopropanesulfonamide] | 6.00 to 7.00 |
| CCN(C(=O)c1cc(F)ccc1Oc1cncnc1N1CC2(CCN(C[C@@H]3CC[C@@H](NC(=O)NCC(F)F)CO3)CC2)C1)C(C)C [Example 41, 2-((4-(7-(((2S,5R)-5-(3-(2,2-Difluoroethyl)ureido)tetrahydro-2H-pyran-2-yl)methyl)-2,7-diazaspiro[3.5]nonan-2-yl)pyrimidin-5-yl)oxy)-N-ethyl-5-fluoro-N-isopropylbenzamide] | 6.00 to 7.00 |
